In article PMC3448953 (2012):
Counter-ions that a name gives are not always drawn.

Biological target: BioA (Mycobacterium tuberculosis, UniProt P9WQ81)
Experiment: continuous coupled fluorescence enzyme assay
Assay type: biochemical

Chain of BioA (P9WQ81 whole entry): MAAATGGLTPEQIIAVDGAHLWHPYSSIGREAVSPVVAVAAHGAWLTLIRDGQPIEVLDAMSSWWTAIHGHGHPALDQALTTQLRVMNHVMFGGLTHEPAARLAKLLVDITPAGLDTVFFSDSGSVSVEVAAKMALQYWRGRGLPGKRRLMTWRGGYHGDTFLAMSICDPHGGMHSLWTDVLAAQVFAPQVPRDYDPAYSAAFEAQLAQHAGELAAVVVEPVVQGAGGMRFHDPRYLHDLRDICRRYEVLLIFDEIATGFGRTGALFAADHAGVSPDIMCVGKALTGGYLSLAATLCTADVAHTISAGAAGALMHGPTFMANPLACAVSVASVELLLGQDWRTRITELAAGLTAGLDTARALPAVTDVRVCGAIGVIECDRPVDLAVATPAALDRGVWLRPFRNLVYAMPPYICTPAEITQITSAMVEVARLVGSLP

N[C@H]1C=C[C@@H](CCCO)C1 (racemic) [M-2, (±)-cis-3-(-4-Aminocyclopent-2-enyl)propan-1-ol hydrochloride salt]
IC50: 57 ± 1.9 µM
